Residue numbers refer to the chain shown, from its start. Several values for one entry are separate records, joined by “and”; a condition that tells them apart may be missing. Equal values may be shown once. Where a name gives a salt, the structure may show the parent alone.
Experiments:
Format in all cases: biochemical
R140Q IDH2 [1] = molecular target: T1, R140Q IDH2 (Homo sapiens, UniProt P48735, R140Q); test: Absorbance assay (NADPH consumption), substrate turnover in the absence of 2OG
T1 construct: made in house; host or cells: Sf21 insect cells (cell pellets prepared at Evotec)
T1 sequence (P48735 40-452 R140Q): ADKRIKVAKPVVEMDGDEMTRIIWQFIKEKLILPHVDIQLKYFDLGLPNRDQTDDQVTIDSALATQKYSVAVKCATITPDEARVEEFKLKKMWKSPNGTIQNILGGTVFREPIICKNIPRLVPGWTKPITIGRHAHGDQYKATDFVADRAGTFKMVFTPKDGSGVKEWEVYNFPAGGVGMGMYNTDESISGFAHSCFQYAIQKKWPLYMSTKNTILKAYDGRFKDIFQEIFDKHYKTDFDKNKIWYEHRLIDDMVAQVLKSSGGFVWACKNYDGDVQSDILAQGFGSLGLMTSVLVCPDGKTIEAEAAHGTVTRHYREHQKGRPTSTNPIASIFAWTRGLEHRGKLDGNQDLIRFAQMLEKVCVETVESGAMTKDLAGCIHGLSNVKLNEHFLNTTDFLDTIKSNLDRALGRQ
Method: (§1) Compounds were dispensed using a CyBio SDW-CW CyBi-Well Simultaneous Pipettor and assay started using a ThermoFisher Multidrop Combi reagent dispenser.
(§2) Reactions were performed as technical quadruplicates.

R172K IDH2 [2] = molecular target: T2, R172K IDH2 (Homo sapiens, UniProt P48735, R172K); test: as above
T2 construct: made in house; host or cells: Sf21 insect cells (cell pellets prepared at Evotec)
T2 sequence (P48735 40-452 R172K): T1 sequence (P48735 40-452 R140Q) with Q101R, R133K
Method: as §1, §2

R140Q IDH2 [3] = molecular target: T1, R140Q IDH2; test: Absorbance assay, variant activity in the presence of equimolar 2OG (inhibition screen)
Method in brief: (§3)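 Tech. quadruplicates; cpds pipetted simultaneously, reaction initiated by dispenser addition.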

R172K IDH2 [4] = molecular target: T2, R172K IDH2; test: as above
Method in brief: as §3

WT IDH1 [5] = molecular target: T3, WT IDH1 (Homo sapiens, UniProt O75874); test: Absorbance assay, WT activity in the presence of equimolar DL-isocitrate (inhibition)
T3 construct: made in house; host or cells: Escherichia coli BL21(DE3) pLyS
T3 sequence (O75874 whole entry): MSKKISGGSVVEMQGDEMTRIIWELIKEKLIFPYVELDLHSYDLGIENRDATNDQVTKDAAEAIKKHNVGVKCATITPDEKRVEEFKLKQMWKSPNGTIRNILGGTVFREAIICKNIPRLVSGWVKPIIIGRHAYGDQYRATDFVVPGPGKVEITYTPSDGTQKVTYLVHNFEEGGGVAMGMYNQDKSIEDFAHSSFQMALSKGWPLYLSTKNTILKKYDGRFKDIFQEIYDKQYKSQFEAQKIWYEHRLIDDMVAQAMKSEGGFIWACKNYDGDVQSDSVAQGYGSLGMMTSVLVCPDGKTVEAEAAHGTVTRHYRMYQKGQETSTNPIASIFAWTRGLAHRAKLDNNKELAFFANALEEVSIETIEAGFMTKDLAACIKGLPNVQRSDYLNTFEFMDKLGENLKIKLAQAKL
Method in brief: as §3

WT IDH2 [6] = molecular target: T4, WT IDH2 (Homo sapiens, UniProt P48735); test: as above
T4 construct: made in house; host or cells: Sf21 insect cells (cell pellets prepared at Evotec)
T4 sequence (P48735 40-452): T1 sequence (P48735 40-452 R140Q) with Q101R
Method in brief: as §3

WT IDH1 [7] = molecular target: T3, WT IDH1; test: Absorbance assay, substrate activity in the absence of DL-isocitrate
Method in brief: as §3

WT IDH2 [8] = molecular target: T4, WT IDH2; test: as above
Method in brief: as §3

R132H IDH1 [9] = molecular target: T5, R132H IDH1 (Homo sapiens, UniProt O75874, R132H); test: Absorbance assay (NADPH consumption), substrate turnover in the absence of 2OG; design: made in house; host or cells: Escherichia coli BL21(DE3) pLyS
T5 sequence (O75874 whole entry R132H): as the sequence (O75874 whole entry) above, with R132H counted along it
Method: as §1, §2

R132H IDH1 [10] = molecular target: T5, R132H IDH1; test: Absorbance assay, variant activity in the presence of equimolar 2OG (inhibition screen); design: made in house; host or cells: Escherichia coli BL21(DE3) pLyS
Method in brief: as §3

[11] = no 2OG, 6.0 mM test compound, 0.03 μM R140Q IDH2, 50 μM NADPH, 2OG = 100
[12] = no 2OG, 1.0 mM test compound, 0.03 μM R172K IDH2, 50 μM NADPH, 2OG = 100
[13] = 6.0 mM 2OG and 6.0 mM test compound, 0.03 μM R140Q IDH2, 50 μM NADPH
[14] = 1.0 mM 2OG and 1.0 mM test compound, 0.03 μM R172K IDH2, 50 μM NADPH
[15] = […] isocitrate and […] test compound, 75 μM NADP+, 2.0 nM WT IDH1
[16] = […] isocitrate and […] test compound, 75 μM NADP+, 2.0 nM WT IDH2
[17] = no DL-isocitrate, […] test compound, 75 μM NADP+, 2.0 nM WT IDH1, compared to DL-isocitrate
[18] = no DL-isocitrate, […] test compound, 75 μM NADP+, 2.0 nM WT IDH2, compared to DL-isocitrate
[19] = no 2OG, […] test compound, 0.03 μM R132H IDH1, 50 μM NADPH, 2OG = 100
[20] = […] 2OG and […] test compound, 0.03 μM R132H IDH1, 50 μM NADPH

With CCOC(=O)/C=C/C(=O)O [mono-ethyl fumarate] the “activity [%] (%-substrate conversion after 20 min incubation)” value (“activity [%]” below) (R140Q IDH2 [1]; [11]) was less than 10%, the “activity [%]” value (R172K IDH2 [2]; [12]) was less than 10% and the “activity [%]” value (R140Q IDH2 [3]; [13]) was 108 ± 7%. For the same compound, the “activity [%]” value (R172K IDH2 [4]; [14]) was 107 ± 3%, the “activity [%]” value (WT IDH1 [5]; [15]) was 106 ± 4% and the “activity [%]” value (WT IDH2 [6]; [16]) was 96 ± 5%. For the same compound, the “activity [%]” value (WT IDH1 [7]; [17]) was less than 10%, the “activity [%]” value (WT IDH2 [8]; [18]) was less than 10% and the “activity [%]” value (R132H IDH1 [9]; [19]) was less than 10%. For the same compound, the “activity [%]” value (R132H IDH1 [10]; [20]) was 94 ± 8%.
In the case of NC(=O)C(=O)O [oxamic acid], the “activity [%]” value (R140Q IDH2 [1]; [11]) is reported as less than 10%, the “activity [%]” value (R172K IDH2 [2]; [12]) is reported as less than 10% and the “activity [%]” value (R140Q IDH2 [3]; [13]) is reported as 117 ± 3%. For the same compound, the “activity [%]” value (R172K IDH2 [4]; [14]) was 102 ± 7%, the “activity [%]” value (WT IDH1 [5]; [15]) was 105 ± 2% and the “activity [%]” value (WT IDH2 [6]; [16]) was 100 ± 1%. For the same compound, the “activity [%]” value (WT IDH1 [7]; [17]) was less than 10%, the “activity [%]” value (WT IDH2 [8]; [18]) was less than 10% and the “activity [%]” value (R132H IDH1 [9]; [19]) was less than 10%. The “activity [%]” value (R132H IDH1 [10]; [20]) was 99 ± 2%.
For O=C(O)C(=O)CS [mercaptopyruvic acid], the “activity [%]” value (R140Q IDH2 [1]; [11]) was less than 10%, the “activity [%]” value (R172K IDH2 [2]; [12]) was less than 10% and the “activity [%]” value (R140Q IDH2 [3]; [13]) was 91 ± 5%. For the same compound, the “activity [%]” value (R172K IDH2 [4]; [14]) was 54 ± 1%, the inhibition (R172K IDH2 [4]; equimolar 2OG (1.0 mM)) was ~ 50% and the “activity [%]” value (WT IDH1 [5]; [15]) was 88 ± 1%. The “activity [%]” value (WT IDH2 [6]; [16]) was 85 ± 1%, the “activity [%]” value (WT IDH1 [7]; [17]) was less than 10% and the “activity [%]” value (WT IDH2 [8]; [18]) was less than 10%. For the same compound, the “activity [%]” value (R132H IDH1 [9]; [19]) was less than 10% and the “activity [%]” value (R132H IDH1 [10]; [20]) was 51 ± 5%.
With CC(C(=O)O)C(C)C(=O)O (centres unmarked) [1,2-dimethylsuccinic acid] the “activity [%]” value (R140Q IDH2 [1]; [11]) was less than 10%, the “activity [%]” value (R172K IDH2 [2]; [12]) was less than 10% and the “activity [%]” value (R140Q IDH2 [3]; [13]) was 110 ± 3%. For the same compound, the “activity [%]” value (R172K IDH2 [4]; [14]) was 99 ± 5%, the “activity [%]” value (WT IDH1 [5]; [15]) was 103 ± 1% and the “activity [%]” value (WT IDH2 [6]; [16]) was 99 ± 1%. For the same compound, the “activity [%]” value (WT IDH1 [7]; [17]) was less than 10%, the “activity [%]” value (WT IDH2 [8]; [18]) was less than 10% and the “activity [%]” value (R132H IDH1 [9]; [19]) was less than 10%. The “activity [%]” value (R132H IDH1 [10]; [20]) was 100 ± 2%.
In the case of O=C1CC(C(=O)O)C(C(=O)O)O1 (racemic) [DL-isocitric acid lactone], the “activity [%]” value (R140Q IDH2 [1]) is reported as less than 10%, the “activity [%]” value (R172K IDH2 [2]) is reported as less than 10% and the “activity [%]” value (R140Q IDH2 [3]) is reported as 118 ± 18%. For the same compound, the “activity [%]” value (R172K IDH2 [4]) was 95 ± 3%, the “activity [%]” value (WT IDH1 [5]) was 105 ± 2% and the “activity [%]” value (WT IDH2 [6]) was 106 ± 2%. For the same compound, the “activity [%]” value (WT IDH1 [7]) was ~10% and 12 ± 4%, the “activity [%]” value (WT IDH2 [8]) was ~10% and 11 ± 1% and the “activity [%]” value (R132H IDH1 [9]) was less than 10%. For the same compound, the “activity [%]” value (R132H IDH1 [10]) was 99 ± 2%.
With O=C(O)CCC(=O)O [succinic acid] the “activity [%]” value (R140Q IDH2 [1]; [11]) was less than 10%, the “activity [%]” value (R172K IDH2 [2]; [12]) was less than 10% and the “activity [%]” value (R140Q IDH2 [3]; [13]) was 124 ± 11%. For the same compound, the “activity [%]” value (R172K IDH2 [4]; [14]) was 89 ± 2%, the “activity [%]” value (WT IDH1 [5]; [15]) was 97 ± 2% and the “activity [%]” value (WT IDH2 [6]; [16]) was 97 ± 3%. The “activity [%]” value (WT IDH1 [7]; [17]) was less than 10%, the “activity [%]” value (WT IDH2 [8]; [18]) was less than 10% and the “activity [%]” value (R132H IDH1 [9]; [19]) was less than 10%. The “activity [%]” value (R132H IDH1 [10]; [20]) was 100 ± 4%.
In the case of succinyl CoA, the “activity [%]” value (R140Q IDH2 [1]; [11]) is reported as less than 10%, the “activity [%]” value (R172K IDH2 [2]; [12]) is reported as less than 10% and the “activity [%]” value (R140Q IDH2 [3]; [13]) is reported as 117 ± 2%. The “activity [%]” value (R172K IDH2 [4]; [14]) was 91 ± 6%, the “activity [%]” value (WT IDH1 [5]; [15]) was 100 ± 1% and the “activity [%]” value (WT IDH2 [6]; [16]) was 99 ± 1%. For the same compound, the “activity [%]” value (WT IDH1 [7]; [17]) was less than 10%, the “activity [%]” value (WT IDH2 [8]; [18]) was less than 10% and the “activity [%]” value (R132H IDH1 [9]; [19]) was less than 10%. The “activity [%]” value (R132H IDH1 [10]; [20]) was 73 ± 1%.
O=C(O)CC(Cc1ccccc1)C(=O)O (racemic) [DL-benzylsuccinic acid] was tested, and the “activity [%]” value (R140Q IDH2 [1]; [11]) was less than 10%, the “activity [%]” value (R172K IDH2 [2]; [12]) was less than 10% and the “activity [%]” value (R140Q IDH2 [3]; [13]) was 123 ± 5%. For the same compound, the “activity [%]” value (R172K IDH2 [4]; [14]) was 98 ± 3%, the “activity [%]” value (WT IDH1 [5]; [15]) was 103 ± 4% and the “activity [%]” value (WT IDH2 [6]; [16]) was 101 ± 3%. For the same compound, the “activity [%]” value (WT IDH1 [7]; [17]) was less than 10%, the “activity [%]” value (WT IDH2 [8]; [18]) was less than 10% and the “activity [%]” value (R132H IDH1 [9]; [19]) was less than 10%. The “activity [%]” value (R132H IDH1 [10]; [20]) was 93 ± 3%.
With CC(=O)C(=O)O [pyruvic acid] the “activity [%]” value (R140Q IDH2 [1]; [11]) was less than 10%, the “activity [%]” value (R172K IDH2 [2]; [12]) was less than 10% and the “activity [%]” value (R140Q IDH2 [3]; [13]) was 108 ± 4%. The “activity [%]” value (R172K IDH2 [4]; [14]) was 114 ± 12%, the “activity [%]” value (WT IDH1 [5]; [15]) was 111 ± 6% and the “activity [%]” value (WT IDH2 [6]; [16]) was 97 ± 5%. For the same compound, the “activity [%]” value (WT IDH1 [7]; [17]) was less than 10%, the “activity [%]” value (WT IDH2 [8]; [18]) was less than 10% and the “activity [%]” value (R132H IDH1 [9]; [19]) was less than 10%. For the same compound, the “activity [%]” value (R132H IDH1 [10]; [20]) was 112 ± 8%.
For C/C(=C\C(=O)O)C(=O)O [mesaconic acid], the “activity [%]” value (R140Q IDH2 [1]; [11]) was less than 10%, the “activity [%]” value (R172K IDH2 [2]; [12]) was less than 10% and the “activity [%]” value (R140Q IDH2 [3]; [13]) was 116 ± 9%. For the same compound, the “activity [%]” value (R172K IDH2 [4]; [14]) was 104 ± 5%, the “activity [%]” value (WT IDH1 [5]; [15]) was 105 ± 2% and the “activity [%]” value (WT IDH2 [6]; [16]) was 100 ± 2%. For the same compound, the “activity [%]” value (WT IDH1 [7]; [17]) was less than 10%, the “activity [%]” value (WT IDH2 [8]; [18]) was less than 10% and the “activity [%]” value (R132H IDH1 [9]; [19]) was less than 10%. For the same compound, the “activity [%]” value (R132H IDH1 [10]; [20]) was 105 ± 3%.

From publication PMC9939733 (The Journal of Biological Chemistry, 2023)
